Experimental data from patent US20260364089A1, “PYRIDOPYRIMIDINE KRAS INHIBITORS” (Treeline Biosciences, Inc., priority 2022, published 2026).

What follows are molecules tested against T1, KRas G12V (Homo sapiens, UniProt P01116, G12V) (assay: SOS1-Catalyzed Nucleotide Exchange Assay, KRas G12V (Method 2)). Conditions: Method 2, A; 5 nM KRas G12V (aa 1-169, GDP-loaded), 50 nM SOS1; read-out: KRas G12V IC50 (nM) (Method 2, A).
T1 construct: Biotinylated KRas G12V (aa 1-169) loaded with GDP nucleotide; biotin (biotinylated)
T1 sequence (P01116 1-169 G12V): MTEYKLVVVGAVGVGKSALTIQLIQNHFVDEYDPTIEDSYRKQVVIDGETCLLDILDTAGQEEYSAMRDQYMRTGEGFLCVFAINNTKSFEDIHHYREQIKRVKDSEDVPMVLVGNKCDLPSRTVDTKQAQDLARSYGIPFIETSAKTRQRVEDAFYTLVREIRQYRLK
Type: biochemical
Protocol: KRas G12V [Method 2]: Compounds were pre-dispensed via Echo liquid handling (acoustic, touch-free) to generate assay ready plates (ARP). More precisely, a 10-point concentration response curve for each compound was prepared with appropriate top concentration (1 μM, 10 μM, 100 μM). Biotinylated KRas G12V (aa 1-169) loaded with GDP nucleotide and Streptavidin-Europium (SA-EU, Columbia Biosciences) were preincubated in assay buffer (20 mM HEPES pH 7.4, 150 mM NaCl, 5 mM MgCl2, 1 mM DTT, 0.01% Brij-35, 0.3 mg/mL BSA) on ice for 30 min. Separately SOS1 (aa 546-1049) and EDA-GTP-DY647P1 (Jena Bioscience) were preincubated in assay buffer on ice for 30 min. After 30 minutes of incubation for the assay components, 5 μL buffer and 5 μL of KRas G12V-SA-Eu were added to each well of the ARP. After a further 30 min, 5 μL of SOS1-EDA-GTP-D467P1 was added to start the nucleotide exchange reaction. Final concentration in the assay were 5 nM KRas G12V, 50 nM SOS1 (aa 564-1049). The reaction was allowed to proceed for 60-90 minutes after which the plate was read on a plate reader. After normalization of the raw data, the data was fit to a four-parameter logistic curve.
`Nc1cc2c3c(c(F)ccc3c1)CCCC(=O)NCCC1CCCN(C1)c1nc(OC[C@@]34CCCN3C[C@H](F)C4)nc3c(F)c-2ncc13` (stereo partly drawn) [Compound 189a, 3^3-amino-2^8,3^7-difluoro-2^2-(((2R,7aS)-2-fluorotetrahydro-1H-pyrrolizin-7a(5H)-yl)methoxy)-8-aza-2(4,7)-pyrido[4,3-d]pyrimidina-1(1,3)-piperidina-3(1,8)-naphthalenacyclodecaphan-7-one] showed an IC50 of 100 to 1000 nM. For `O=C1CCCCc2c(Cl)cc(O)cc2-c2ncc3c(nc(OC[C@@]45CCCN4C[C@H](F)C5)nc3c2F)N2CCCC(O)(CCN1)C2` (single isomer, unassigned) [Compound 140b], the IC50 was no more than 100 nM. In the case of `O=C1CCCc2c(F)ccc3cc(O)cc(c23)-c2ccc3c(nc(OC[C@@]45CCCN4C[C@H](F)C5)nc3c2F)N2CCOCC(CCN1)C2` (stereo partly drawn) [Compound 195a, 2^8,3^7-difluoro-2^2-(((2R,7aS)-2-fluorotetrahydro-1H-pyrrolizin-7a(5H)-yl)methoxy)-3^3-hydroxy-8-aza-1(4,6)-oxazepana-2(4,7)-quinazolina-3(1,8)-naphthalenacyclodecaphan-7-one], the IC50 is reported as no more than 100 nM. In the case of `Nc1cc2c3c(c(F)ccc3c1)CCCC(=O)NCCC1CCCN(C1)c1nc(OC[C@@]34CCCN3C[C@H](F)C4)nc3c(F)c-2ccc13` (stereo partly drawn) [Compound 190a, 3^3-amino-2^8,3^7-difluoro-2^2-(((2R,7aS)-2-fluorotetrahydro-1H-pyrrolizin-7a(5H)-yl)methoxy)-8-aza-2(4,7)-quinazolina-1(1,3)-piperidina-3(1,8)-naphthalenacyclodecaphan-7-one], the IC50 is reported as 100 to 1000 nM.

Same assay, conditions: Method 2, B; 5 nM KRas G12V (aa 1-169, GDP-loaded), 50 nM SOS1; read-out: KRas G12V IC50 (nM) (Method 2, B)
For `O=C1CCCCc2c(Cl)cc3[nH]ncc3c2-c2ncc3c(nc(OC[C@@]45CCCN4C[C@H](F)C5)nc3c2F)N2CCOCC(CN1)C2` (stereo partly drawn) [Compound 203a, 3^6-chloro-2^8-fluoro-2^2-(((2R,7aS)-2-fluorotetrahydro-1H-pyrrolizin-7a(5H)-yl)methoxy)-3^1H-9-aza-1(4,6)-oxazepana-2(4,7)-pyrido[4,3-d]pyrimidina-3(4,5)-indazolacyclodecaphan-8-one], the IC50 was no more than 100 nM. Molecule `Nc1cc2c(c(Cl)c1F)CCCCC(=O)NCCC1COCCN(C1)c1nc(OC[C@@]34CCCN3C[C@H](F)C4)nc3c(F)c-2ncc13` (stereo partly drawn) [Compound 185a, 3^5-amino-3^3-chloro-2^8,3^4-difluoro-2^2-(((2R,7aS)-2-fluorotetrahydro-1H-pyrrolizin-7a(5H)-yl)methoxy)-9-aza-1(4,6)-oxazepana-2(4,7)-pyrido[4,3-d]pyrimidina-3(1,2)-benzenacycloundecaphan-8-one] has an IC50 of 100 to 1000 nM. For `Nc1cc2c3c(c(F)ccc3c1)CCCC(=O)NCCC1CCCN(C1)c1nc(OC[C@@]34CCCN3C[C@H](F)C4)nc3c(F)c-2ncc13` (stereo partly drawn) [Compound 189a, 3^3-amino-2^8,3^7-difluoro-2^2-(((2R,7aS)-2-fluorotetrahydro-1H-pyrrolizin-7a(5H)-yl)methoxy)-8-aza-2(4,7)-pyrido[4,3-d]pyrimidina-1(1,3)-piperidina-3(1,8)-naphthalenacyclodecaphan-7-one], the IC50 was 100 to 1000 nM. Molecule `O=C1CCCCc2c(Cl)cc3[nH]ncc3c2-c2c(F)cc3c(nc(OC[C@@]45CCCN4C[C@H](F)C5)nc3c2F)N2CCOCC(CN1)C2` (stereo partly drawn) [Compound 200a, 3^6-chloro-2^6,2^8-difluoro-2^2-(((2R,7aS)-2-fluorotetrahydro-1H-pyrrolizin-7a(5H)-yl)methoxy)-3^1H-9-aza-1(4,6)-oxazepana-2(4,7)-quinazolina-3(4,5)-indazolacyclodecaphan-8-one] has an IC50 of no more than 100 nM. `O=C1CCCCc2c(Cl)cc(O)cc2-c2ncc3c(nc(OC[C@@]45CCCN4C[C@H](F)C5)nc3c2F)N2CCCC(O)(CCN1)C2` (single isomer, unassigned) [Compound 140b] showed an IC50 of no more than 100 nM. `O=C1CCCCc2c(Cl)cc3[nH]ncc3c2-c2ccc3c(nc(OC[C@@]45CCCN4C[C@H](F)C5)nc3c2F)N2CCCC(CCN1)C2` (single isomer, unassigned) [Compound 202b] showed an IC50 of no more than 100 nM. `O=C1CCCc2c(F)ccc3cc(O)cc(c23)-c2ccc3c(nc(OC[C@@]45CCCN4C[C@H](F)C5)nc3c2F)N2CCOCC(CCN1)C2` (stereo partly drawn) [Compound 195a, 2^8,3^7-difluoro-2^2-(((2R,7aS)-2-fluorotetrahydro-1H-pyrrolizin-7a(5H)-yl)methoxy)-3^3-hydroxy-8-aza-1(4,6)-oxazepana-2(4,7)-quinazolina-3(1,8)-naphthalenacyclodecaphan-7-one] showed an IC50 of no more than 100 nM. Molecule `Nc1cc2c(c(Cl)n1)CCCCC(=O)NCCC1(O)CCCN(C1)c1nc(OC[C@@]34CCCN3C[C@H](F)C4)nc3c(F)c-2c(F)cc13` (single isomer, unassigned) [Compound 188a] has an IC50 of 10000 to 30000 nM. With `CN1CCC[C@H]1COc1nc2c3cnc(c(F)c3n1)-c1cc(N)cc(Cl)c1CCCCC(=O)NCCC1CCCN2C1` (stereo partly drawn) [Compound 171a, 3^5-amino-3^3-chloro-2^8-fluoro-2^2-(((S)-1-methylpyrrolidin-2-yl)methoxy)-9-aza-2(4,7)-pyrido[4,3-d]pyrimidina-1(1,3)-piperidina-3(1,2)-benzenacycloundecaphan-8-one] the IC50 was 100 to 1000 nM. For `Nc1cc2c3c(c(F)ccc3c1)CCCC(=O)NCCC1CCCN(C1)c1nc(OC[C@@]34CCCN3C[C@H](F)C4)nc3c(F)c-2ccc13` (stereo partly drawn) [Compound 190a, 3^3-amino-2^8,3^7-difluoro-2^2-(((2R,7aS)-2-fluorotetrahydro-1H-pyrrolizin-7a(5H)-yl)methoxy)-8-aza-2(4,7)-quinazolina-1(1,3)-piperidina-3(1,8)-naphthalenacyclodecaphan-7-one], the IC50 was 100 to 1000 nM. Work on `O=C1CCCc2c(F)ccc3cc(O)cc(c23)-c2ncc3c(nc(OC[C@@]45CCCN4C[C@H](F)C5)nc3c2F)N2CCCC(CCN1)C2` (stereo partly drawn) [Compound 118a, 2^8,3^7-difluoro-2^2-(((2R,7aS)-2-fluorotetrahydro-1H-pyrrolizin-7a(5H)-yl)methoxy)-3^3-hydroxy-8-aza-2(4,7)-pyrido[4,3-d]pyrimidina-1(1,3)-piperidina-3(1,8)-naphthalenacyclodecaphan-7-one] yielded an IC50 of no more than 100 nM. In the case of `O=C1CCCCc2c(Cl)cc3[nH]ncc3c2-c2ccc3c(nc(OC[C@@]45CCCN4C[C@H](F)C5)nc3c2F)N2CCCC(O)(CCN1)C2` (stereo partly drawn) [Compound 199a, 1^6-chloro-2^8-fluoro-2^2-(((2R,7aS)-2-fluorotetrahydro-1H-pyrrolizin-7a(5H)-yl)methoxy)-3^3-hydroxy-1^1H-6-aza-2(7,4)-quinazolina-1(4,5)-indazola-3(1,3)-piperidinacycloundecaphan-7-one], the IC50 is reported as no more than 100 nM. In the case of `Nc1cc2c(c(Cl)c1F)CCCCC(=O)NCCC1(O)CCCN(C1)c1nc(OC[C@@]34CCCN3C[C@H](F)C4)nc3c(F)c-2ccc13` (stereo partly drawn) [Compound 180a, 3^5-amino-3^3-chloro-2^8,3^4-difluoro-2^2-(((2R,7aS)-2-fluorotetrahydro-1H-pyrrolizin-7a(5H)-yl)methoxy)-13-hydroxy-9-aza-2(4,7)-quinazolina-1(1,3)-piperidina-3(1,2)-benzenacycloundecaphan-8-one], the IC50 is reported as 100 to 1000 nM. Work on `Nc1cc(Cl)c2c(c1)-c1ncc3c(nc(OC[C@@]45CCCN4C[C@H](F)C5)nc3c1F)N1CCOCC(CNC(=O)CCCC2)C1` (stereo partly drawn) [Compound 162a, 3^5-amino-3^3-chloro-2^8-fluoro-2^2-(((2R,7aS)-2-fluorotetrahydro-1H-pyrrolizin-7a(5H)-yl)methoxy)-9-aza-1(4,6)-oxazepana-2(4,7)-pyrido[4,3-d]pyrimidina-3(1,2)-benzenacyclodecaphan-8-one] yielded an IC50 of 100 to 1000 nM. `Nc1cc2c(cc1F)CCCCC(=O)NCCC1CCCN(C1)c1nc(OC[C@@]34CCCN3C[C@H](F)C4)nc3c(F)c-2ncc13` (single isomer, unassigned) [Compound 159b] showed an IC50 of 1000 to 10000 nM. In the case of `Nc1cc2c(c(Cl)c1F)CCCCC(=O)NCC1COCCN(C1)c1nc(OC[C@@]34CCCN3C[C@H](F)C4)nc3c(F)c-2ncc13` (stereo partly drawn) [Compound 182a, 3^5-amino-3^3-chloro-2^8,3^4-difluoro-2^2-(((2R,7aS)-2-fluorotetrahydro-1H-pyrrolizin-7a(5H)-yl)methoxy)-9-aza-1(4,6)-oxazepana-2(4,7)-pyrido[4,3-d]pyrimidina-3(1,2)-benzenacyclodecaphan-8-one], the IC50 is reported as 100 to 1000 nM. In the case of `Nc1cc2c(c(Cl)n1)CCCCC(=O)NCCC1CCCN(C1)c1nc(OC[C@@]34CCCN3C[C@H](F)C4)nc3c(F)c-2ncc13` (stereo partly drawn) [Compound 186a, 1^6-amino-1^2-chloro-2^8-fluoro-2^2-(((2R,7aS)-2-fluorotetrahydro-1H-pyrrolizin-7a(5H)-yl)methoxy)-6-aza-2(7,4)-pyrido[4,3-d]pyrimidina-1(4,3)-pyridina-3(1,3)-piperidinacycloundecaphan-7-one], the IC50 is reported as 100 to 1000 nM. `Nc1cc(Cl)c2c(c1)-c1ncc3c(nc(OCC4(CN5CCOCC5)CC4)nc3c1F)N1CCCC(CCNC(=O)CCCC2)C1` (stereo not shown) [Compound 177, 3^5-amino-3^3-chloro-2^8-fluoro-2^2-((1-(morpholinomethyl)cyclopropyl)methoxy)-9-aza-2(4,7)-pyrido[4,3-d]pyrimidina-1(1,3)-piperidina-3(1,2)-benzenacycloundecaphan-8-one] gave an IC50 of 100 to 1000 nM. `O=C1CCCc2c(F)ccc3cccc(c23)-c2ncc3c(nc(OC[C@@]45CCCN4C[C@H](F)C5)nc3c2F)N2CCCC(CCN1)C2` (stereo partly drawn) [Compound 170a, 2^8,3^7-difluoro-2^2-(((2R,7aS)-2-fluorotetrahydro-1H-pyrrolizin-7a(5H)-yl)methoxy)-8-aza-2(4,7)-pyrido[4,3-d]pyrimidina-1(1,3)-piperidina-3(1,8)-naphthalenacyclodecaphan-7-one] gave an IC50 of no more than 100 nM. `O=C1CCCc2c(F)ccc3cc(O)cc(c23)-c2ccc3c(nc(OC[C@@]45CCCN4C[C@H](F)C5)nc3c2F)N2CCCC(CCN1)C2` (stereo partly drawn) [Compound 175a, 2^8,3^7-difluoro-2^2-(((2R,7aS)-2-fluorotetrahydro-1H-pyrrolizin-7a(5H)-yl)methoxy)-3^3-hydroxy-8-aza-2(4,7)-quinazolina-1(1,3)-piperidina-3(1,8)-naphthalenacyclodecaphan-7-one] showed an IC50 of no more than 100 nM. `Nc1cc(Cl)c2c(c1)-c1ccc3c(nc(OC[C@@]45CCCN4C[C@H](F)C5)nc3c1F)N1CCCC(CCNC(=O)CCCC2)C1` (stereo partly drawn) [Compound 165a, 3^5-amino-3^3-chloro-2^8-fluoro-2^2-(((2R,7aS)-2-fluorotetrahydro-1H-pyrrolizin-7a(5H)-yl)methoxy)-9-aza-2(4,7)-quinazolina-1(1,3)-piperidina-3(1,2)-benzenacycloundecaphan-8-one] was tested, and the IC50 was no more than 100 nM.
